Results: US20160271263A1 (Novo Nordisk A/S, priority 2010, published 2016)
Numbered stars: 1 amine (or outer) side, 2 acyl side, 3 side chain; on linkers, the order of the positions; unused ones are H or OH. Side chains are listed from the residue outwards. Peptide text beside a SMILES is read from it. * marks the point of attachment. C18 diacid = O=C(O)CCCCCCCCCCCCCCCCC(=O)*; γGlu = O=C(O)[C@H](CCC(=O)[*:2])N[*:1]; AEEA = NCCOCCOCC(=O)O

molecular target: glucagon receptor (Homo sapiens, UniProt P47871); experiment: cell-based
Sequence (P47871 26-477): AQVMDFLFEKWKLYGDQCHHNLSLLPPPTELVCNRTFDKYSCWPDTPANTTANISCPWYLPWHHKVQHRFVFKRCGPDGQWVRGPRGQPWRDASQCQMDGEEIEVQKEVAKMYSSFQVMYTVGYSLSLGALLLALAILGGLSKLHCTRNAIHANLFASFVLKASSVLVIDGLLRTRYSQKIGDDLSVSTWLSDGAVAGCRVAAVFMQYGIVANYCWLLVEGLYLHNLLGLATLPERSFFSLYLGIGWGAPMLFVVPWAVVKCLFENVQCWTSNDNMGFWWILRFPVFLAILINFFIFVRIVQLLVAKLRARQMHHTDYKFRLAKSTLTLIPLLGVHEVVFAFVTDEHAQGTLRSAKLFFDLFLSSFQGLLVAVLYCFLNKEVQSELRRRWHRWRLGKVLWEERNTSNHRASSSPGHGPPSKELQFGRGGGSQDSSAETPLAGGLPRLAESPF

Row | Compound | EC50 [nM]
1 | CC(C)C[C@H](NC(=O)[C@H](Cc1ccc(O)cc1)NC(=O)[C@H](CCCCN)NC(=O)[C@H](CO)NC(=O)[C@H](Cc1ccc(O)cc1)NC(=O)[C@H](CC(=O)O)NC(=O)[C@H](CO)NC(=O)[C@@H](NC(=O)[C@H](Cc1ccccc1)NC(=O)[C@@H](NC(=O)CNC(=O)[C@H](CCC(N)=O)NC(=O)[C@H](CO)NC(=O)[C@@H](N)Cc1c[nH]cn1)[C@@H](C)O)[C@@H](C)O)C(=O)N[C@@H](CC(=O)O)C(=O)N[C@@H](CO)C(=O)N[C@@H](CCCNC(=N)N)C(=O)N[C@@H](CCCNC(=N)N)C(=O)N[C@@H](C)C(=O)N[C@@H](CCC(N)=O)C(=O)N[C@@H](CCC(=O)O)C(=O)N[C@@H](Cc1ccccc1)C(=O)N[C@H](C(=O)N[C@@H](CCCCNC(=O)COCCOCCNC(=O)COCCOCCNC(=O)CC[C@H](NC(=O)CCCCCCCCCCCCCCCCC(=O)O)C(=O)O)C(=O)N[C@@H](Cc1c[nH]c2ccccc12)C(=O)N[C@@H](CC(C)C)C(=O)N[C@@H](CC(C)C)C(=O)N[C@@H](CC(N)=O)C(=O)N[C@H](C(=O)O)[C@@H](C)O)C(C)C [Example 48] | 0.021
2 | CC(C)C[C@H](NC(=O)[C@H](Cc1ccc(O)cc1)NC(=O)[C@H](CCCCN)NC(=O)[C@H](CO)NC(=O)[C@H](Cc1ccc(O)cc1)NC(=O)[C@H](CC(=O)O)NC(=O)[C@H](CO)NC(=O)[C@@H](NC(=O)[C@H](Cc1ccccc1)NC(=O)[C@@H](NC(=O)CNC(=O)[C@H](CCC(N)=O)NC(=O)[C@H](CO)NC(=O)[C@@H](N)Cc1c[nH]cn1)[C@@H](C)O)[C@@H](C)O)C(=O)N[C@@H](CC(=O)O)C(=O)N[C@@H](CO)C(=O)N[C@@H](CCCNC(=N)N)C(=O)N[C@@H](CCC(N)=O)C(=O)N[C@@H](C)C(=O)N[C@@H](CCC(N)=O)C(=O)N[C@@H](CCC(=O)O)C(=O)N[C@@H](Cc1ccccc1)C(=O)N[C@H](C(=O)N[C@@H](CCCCNC(=O)COCCOCCNC(=O)COCCOCCNC(=O)CC[C@H](NC(=O)CCCCCCCCCCCCCCCCC(=O)O)C(=O)O)C(=O)N[C@@H](Cc1c[nH]c2ccccc12)C(=O)N[C@@H](CC(C)C)C(=O)N[C@@H](CC(C)C)C(=O)N[C@@H](CC(N)=O)C(=O)N[C@H](C(=O)O)[C@@H](C)O)C(C)C [Example 49, N^ε24-([2-[2-[2-[[2-[2-[2-[[(4S)-5-hydroxy-4-[(18-hydroxy-18-oxooctadecanoyl)amino]-5-oxopentanoyl]amino]ethoxy]ethoxy]acetyl]amino]ethoxy]ethoxy]acetyl]) [Gln^18,Glu^21,Lys^24,Leu^27] Glucagon] (H-HSQGTFTSDYSKYLDSRQAQEFVK([AEEA-AEEA-γGlu-C18 diacid])WLLNT-OH; N-terminus and C-terminus assumed) | 0.15
3 | CC(C)C[C@H](NC(=O)[C@H](Cc1ccc(O)cc1)NC(=O)[C@H](CCCCN)NC(=O)[C@H](CO)NC(=O)[C@H](Cc1ccc(O)cc1)NC(=O)[C@H](CC(=O)O)NC(=O)[C@H](CO)NC(=O)[C@@H](NC(=O)[C@H](Cc1ccccc1)NC(=O)[C@@H](NC(=O)CNC(=O)[C@H](CCC(N)=O)NC(=O)[C@H](CO)NC(=O)[C@@H](N)Cc1c[nH]cn1)[C@@H](C)O)[C@@H](C)O)C(=O)N[C@@H](CC(=O)O)C(=O)N[C@@H](CO)C(=O)N[C@@H](CCCNC(=N)N)C(=O)N[C@@H](CCCNC(=N)N)C(=O)N[C@@H](C)C(=O)N[C@@H](CCC(N)=O)C(=O)N[C@@H](CC(=O)O)C(=O)N[C@@H](Cc1ccccc1)C(=O)N[C@H](C(=O)N[C@@H](CCCCNC(=O)COCCOCCNC(=O)COCCOCCNC(=O)CC[C@H](NC(=O)CCCCCCCCCCCCCCCCC(=O)O)C(=O)O)C(=O)N[C@@H](Cc1c[nH]cn1)C(=O)N[C@@H](CC(C)C)C(=O)N[C@@H](CC(C)C)C(=O)N[C@@H](CC(N)=O)C(=O)N[C@H](C(=O)O)[C@@H](C)O)C(C)C [Example 50, N^ε24-([2-[2-[2-[[2-[2-[2-[[(4S)-5-hydroxy-4-[(18-hydroxy-18-oxooctadecanoyl)amino]-5-oxopentanoyl]amino]ethoxy]ethoxy]acetyl]amino]ethoxy]ethoxy]acetyl]) [Lys^24,His^25,Leu^27] Glucagon] | 0.194
4 | CC(C)C[C@H](NC(=O)[C@H](Cc1ccc(O)cc1)NC(=O)[C@H](CCCCN)NC(=O)[C@H](CO)NC(=O)[C@H](Cc1ccc(O)cc1)NC(=O)[C@H](CC(=O)O)NC(=O)[C@H](CO)NC(=O)[C@@H](NC(=O)[C@H](Cc1ccccc1)NC(=O)[C@@H](NC(=O)CNC(=O)[C@H](CCC(N)=O)NC(=O)[C@H](CO)NC(=O)[C@@H](N)Cc1c[nH]cn1)[C@@H](C)O)[C@@H](C)O)C(=O)N[C@@H](CC(=O)O)C(=O)N[C@@H](CO)C(=O)N[C@@H](CCCNC(=N)N)C(=O)N[C@@H](CCCNC(=N)N)C(=O)N[C@@H](C)C(=O)N[C@@H](CCC(N)=O)C(=O)N[C@@H](CC(=O)O)C(=O)N[C@@H](Cc1ccccc1)C(=O)N[C@H](C(=O)N[C@@H](CCC(N)=O)C(=O)N[C@@H](Cc1c[nH]c2ccccc12)C(=O)N[C@@H](CC(C)C)C(=O)N[C@@H](CC(C)C)C(=O)N[C@@H](CCCCNC(=O)CC[C@H](NC(=O)CC[C@H](NC(=O)COCCOCCNC(=O)COCCOCCNC(=O)CC[C@H](NC(=O)CCCCCCCCCCCCCCCCC(=O)O)C(=O)O)C(=O)O)C(=O)O)C(=O)N[C@H](C(=O)O)[C@@H](C)O)C(C)C [Example 52, N^ε28-([(4S)-5-hydroxy-4-[[(4S)-5-hydroxy-4-[[2-[2-[2-[[2-[2-[2-[[(4S)-5-hydroxy-4-[(18-hydroxy-18-oxooctadecanoyl)amino]-5-oxopentanoyl]amino]ethoxy]ethoxy]acetyl]amino]ethoxy]ethoxy]acetyl]amino]-5-oxopentanoyl]amino]-5-oxopentanoyl]) [Leu^27,Lys^28] Glucagon] | 0.055
5 | CC(C)C[C@H](NC(=O)[C@H](CC(C)C)NC(=O)[C@H](Cc1c[nH]c2ccccc12)NC(=O)[C@H](CCC(N)=O)NC(=O)[C@@H](NC(=O)[C@H](Cc1ccccc1)NC(=O)[C@H](CC(=O)O)NC(=O)[C@H](CCC(N)=O)NC(=O)[C@H](C)NC(=O)[C@H](CCCNC(=N)N)NC(=O)[C@H](CCCNC(=N)N)NC(=O)[C@H](CO)NC(=O)[C@H](CC(=O)O)NC(=O)[C@H](CC(C)C)NC(=O)[C@H](Cc1ccc(O)cc1)NC(=O)[C@H](CCCCN)NC(=O)[C@H](CO)NC(=O)[C@H](Cc1ccc(O)cc1)NC(=O)[C@H](CC(=O)O)NC(=O)[C@H](CO)NC(=O)[C@@H](NC(=O)[C@H](Cc1ccccc1)NC(=O)[C@@H](NC(=O)CNC(=O)[C@H](CCC(N)=O)NC(=O)[C@H](CO)NC(=O)[C@@H](N)Cc1c[nH]cn1)[C@@H](C)O)[C@@H](C)O)C(C)C)C(=O)N[C@@H](CC(N)=O)C(=O)N[C@@H](CCCCNC(=O)CC[C@H](NC(=O)CC[C@H](NC(=O)COCCOCCNC(=O)COCCOCCNC(=O)CC[C@H](NC(=O)CCCCCCCCCCCCCCCCC(=O)O)C(=O)O)C(=O)O)C(=O)O)C(=O)O [Example 53, N^ε29-([(4S)-5-hydroxy-4-[[(4S)-5-hydroxy-4-[[2-[2-[2-[[2-[2-[2-[[(4S)-5-hydroxy-4-[(18-hydroxy-18-oxooctadecanoyl)amino]-5-oxopentanoyl]amino]ethoxy]ethoxy]acetyl]amino]ethoxy]ethoxy]acetyl]amino]-5-oxopentanoyl]amino]-5-oxopentanyl]) [Leu^27,Lys^29] Glucagon] | 0.095
6 | CC(C)C[C@H](NC(=O)[C@H](Cc1ccc(O)cc1)NC(=O)[C@H](CCCCN)NC(=O)[C@H](CO)NC(=O)[C@H](Cc1ccc(O)cc1)NC(=O)[C@H](CC(=O)O)NC(=O)[C@H](CO)NC(=O)[C@@H](NC(=O)[C@H](Cc1ccccc1)NC(=O)[C@@H](NC(=O)CNC(=O)[C@H](CCC(N)=O)NC(=O)[C@H](CO)NC(=O)[C@@H](N)Cc1c[nH]cn1)[C@@H](C)O)[C@@H](C)O)C(=O)N[C@@H](CC(=O)O)C(=O)N[C@@H](CO)C(=O)N[C@@H](CCCCN)C(=O)N[C@@H](CCCCN)C(=O)N[C@@H](C)C(=O)N[C@@H](CCC(N)=O)C(=O)N[C@@H](CCC(=O)O)C(=O)N[C@@H](Cc1ccccc1)C(=O)N[C@H](C(=O)N[C@@H](CCCCNC(=O)COCCOCCNC(=O)COCCOCCNC(=O)CC[C@H](NC(=O)CCCCCCCCCCCCCCCCC(=O)O)C(=O)O)C(=O)N[C@@H](Cc1c[nH]c2ccccc12)C(=O)N[C@@H](CC(C)C)C(=O)N[C@@H](CC(C)C)C(=O)N[C@@H](CO)C(=O)N[C@H](C(=O)O)[C@@H](C)O)C(C)C [Example 55, N^ε24-([2-[2-[2-[[2-[2-[2-[[(4S)-5-hydroxy-4-[(18-hydroxy-18-oxooctadecanoyl)amino]-5-oxopentanoyl]amino]ethoxy]ethoxy]acetyl]amino]ethoxy]ethoxy]acetyl]) [Lys^17,Lys^18,Glu^21,Lys^24,Leu^27, Ser^28] Glucagon] (H-HSQGTFTSDYSKYLDSKKAQEFVK([AEEA-AEEA-γGlu-C18 diacid])WLLST-OH; N-terminus and C-terminus assumed) | 0.009
7 | CC(C)C[C@H](NC(=O)[C@H](Cc1ccc(O)cc1)NC(=O)[C@H](CCCCN)NC(=O)[C@H](CO)NC(=O)[C@H](Cc1ccc(O)cc1)NC(=O)[C@H](CC(=O)O)NC(=O)[C@H](CO)NC(=O)[C@@H](NC(=O)[C@H](Cc1ccccc1)NC(=O)[C@@H](NC(=O)CNC(=O)[C@H](CCC(N)=O)NC(=O)[C@H](CO)NC(=O)[C@@H](N)Cc1c[nH]cn1)[C@@H](C)O)[C@@H](C)O)C(=O)N[C@@H](CC(=O)O)C(=O)N[C@@H](CO)C(=O)N[C@@H](CCCNC(=N)N)C(=O)N[C@@H](CCCNC(=N)N)C(=O)N[C@@H](C)C(=O)N[C@@H](CCC(N)=O)C(=O)N[C@@H](CC(=O)O)C(=O)N[C@@H](Cc1ccccc1)C(=O)N[C@H](C(=O)N[C@@H](CCCCNC(=O)COCCOCCNC(=O)COCCOCCNC(=O)CC[C@H](NC(=O)CCCCCCCCCCCCCCCCC(=O)O)C(=O)O)C(=O)N[C@@H](Cc1ccc(OP(=O)(O)O)cc1)C(=O)N[C@@H](CC(C)C)C(=O)N[C@@H](CC(C)C)C(=O)N[C@@H](CC(N)=O)C(=O)N[C@H](C(=O)O)[C@@H](C)O)C(C)C [Example 56, N^ε24-([2-[2-[2-[[2-[2-[2-[[(4S)-5-hydroxy-4-[(18-hydroxy-18-oxooctadecanoyl)amino]-5-oxopentanoyl]amino]ethoxy]ethoxy]acetyl]amino]ethoxy]ethoxy]acetyl]) [Lys^24, (p)Tyr^25,Leu^27] Glucagon] | 0.171
